This series concerns untransformed HMC cells. Briefly: ATPlite cell vitality assay in co-treatment with pemetrexed, untransformed cells. It counts as cell-based, human. The note with it: extract at non-cytotoxic dose 6 μg/ml. The source says: 4.1 Association of Extract of Cynara Spp. and Pemetrexed with ATPlite™ Assay
For orientation: Cellular ATP, detected with luciferase, serves as a proxy for viable cell number.

As to `Nc1nc2[nH]cc(CCc3ccc(C(=O)N[C@@H](CCC(=O)O)C(=O)O)cc3)c2c(=O)[nH]1` [PMTX, pemetrexed], the “cell vitality of untransformed HMC cells, pemetrexed alone or with extract” value is “highly toxic for the non-tumour cells”.

(Values after US20170340689A1, “TITRATED EXTRACTS OF CYNARA SCOLYMUS FOR USE IN THE TREATMENT OF MESOTHELIOMA” (ABOCA S.P.A SOCIETÀ AGRICOLA, priority 2014, published 2017).)
